Results as given in patent US20260325473A1, “N-Beta-Hydroxybutyryl-Amino Acids and Related Compositions and Methods” (The Board of Trustees of the Leland Stanford Junior …, priority 2023, published 2026).
Values belong to the compound of their own block, whether it stands above or below them.

Legend:
[1] = Metabolite quantitation in mouse plasma (QQQ-LC/MS); assay type: in vivo; details: 1 week ketogenic diet, 24 h fast, or ketone ester drink 3 g/kg
Method: (§1) Preparation of plasma samples for LC-MS analysis. Plasma was collected from mice via a submandibular bleed into lithium heparin tubes (BD, 365985) and immediately transferred onto ice. The blood was centrifuged at 4° C. at 5000 rpm for 5 min and the top layer of plasma was aliquoted and frozen at −80 °C. To extract polar metabolites from plasma for LC-MS analysis, 150 μl of a 2:1 mixture of acetonitrile/methanol was added to 50 μl of plasma. The mixture was centrifuged at 4° C. for 10 min at 15,000 rpm and the supernatant was transferred to a LC-MS vial.
(§2) Targeted metabolomics. Targeted measurements were performed using an Agilent 6470 triple quadrupole LC-MS instrument. MS analysis was performed using AJS in negative mode. The AJS source parameters were set as follows: the dry gas temperature was set at 250° C. with a gas flow of 12 l/min and the nebulizer pressure at 25 psi; the sheath gas temperature was set to 300° C. with the sheath gas flow set at 12 l/min; and the capillary voltage was set to 3,500 V. Separation of polar metabolites was performed as described above in the ‘Untargeted measurements of metabolites by LC-MS’ section. Multiple reaction monitoring was performed for the indicated metabolites with the listed dwell times, fragmentor voltage, collision energies, cell accelerator voltages and polarities. Quantification of the endogenous metabolite concentrations were performed by generating a standard curve with known concentrations of each metabolite. Metabolite standards were analyzed alongside the plasma samples using the same targeted triple quadrupole LC/MS method. A calibration standard curve generated from the metabolite standard concentrations and total peak areas were used to calculate the concentrations of each endogenous metabolite. The dilution of the plasma during the sample preparation was also taken into account for the quantification.

CNDP2 = target: T1, CNDP2 (Mus musculus, UniProt Q9D1A2); assay type: in vivo; details: ketone ester drink or one week of ketogenic diet
T1 sequence (Q9D1A2 1-475): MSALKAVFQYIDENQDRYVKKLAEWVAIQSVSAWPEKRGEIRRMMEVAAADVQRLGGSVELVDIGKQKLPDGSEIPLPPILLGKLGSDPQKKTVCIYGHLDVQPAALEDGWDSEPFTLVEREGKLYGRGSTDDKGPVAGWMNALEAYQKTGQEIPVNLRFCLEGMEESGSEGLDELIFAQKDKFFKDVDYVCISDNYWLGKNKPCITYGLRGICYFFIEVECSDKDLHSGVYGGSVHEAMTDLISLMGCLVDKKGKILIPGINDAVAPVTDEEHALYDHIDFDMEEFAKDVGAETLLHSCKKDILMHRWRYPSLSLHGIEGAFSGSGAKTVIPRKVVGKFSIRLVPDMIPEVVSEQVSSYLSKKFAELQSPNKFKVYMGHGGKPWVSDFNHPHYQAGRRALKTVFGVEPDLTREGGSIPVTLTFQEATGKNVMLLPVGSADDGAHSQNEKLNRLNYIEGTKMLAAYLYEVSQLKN
Method: as §1
(§3) Targeted metabolomics. Targeted measurements were performed using an Agilent 6470 triple quadrupole LC-MS instrument. MS analysis was performed using AJS in negative mode. […] Quantification of the endogenous metabolite concentrations were performed by generating a standard curve with known concentrations of each metabolite. Metabolite standards were analyzed alongside the plasma samples using the same targeted triple quadrupole LC/MS method. […] The dilution of the plasma during the sample preparation was also taken into account for the quantification. […]

[2] = Human ketone ester supplementation study, plasma metabolites; assay type: in vivo; details: 0.3 g/kg ketone ester, 60 min
Method: as §2
Human ketone ester supplementation study. Following screening, eligible subjects participated in a randomized, counter-balanced, double-blind, placebo-controlled crossover trial comparing BHB supplementation versus placebo, separated by a minimum of 2 days (ClinicalTrials.gov ID NCT04194450). Pre-menopausal women were tested in the follicular phase (days 3-9). Participants were asked to refrain from structured exercise and alcohol, limit physical activity, and follow a standardized diet (~50% carbohydrate, ~30% fat, ~20% protein) on the day before each trial. After refraining from medication use for 24 hours, participants reported to the Exercise, Metabolism and Inflammation Laboratory at the University of British Columbia-Okanagan in an overnight fasted state. Anthropometric measurements were obtained prior to insertion of an indwelling intravenous catheter into the antecubital vein for repeated blood sampling. Blood was collected into EDTA tubes (BD, 367863) and immediately centrifuged at 2000 rpm for 15 min and the top layer of plasma was aliquoted and frozen at −80 °C. After baseline (0) blood sample collection, the oral BHB supplement or placebo was consumed in liquid form (~30-65 mL). The BHB supplement (H.V.M.N®, USA) in the form of the ketone monoester (R)-3-hydroxybutyl (R)-3-hydroxybutyrate (AG®, TDeltaS, Oxford, UK) contained 0.4 g mL-1 BHB, natural flavoring, and <2% stevia leaf extract. The taste-matched placebo drink contained the same natural flavoring as the ketone supplement, stevia leaf extract, 5 mL of Bittrex stock (0.005 g of denatonium benzoate powder in 40 ml of water) and 1.5 mL of arrowroot stock (2 g of arrowroot powder in 50 ml of water) to match the bitter flavor and viscosity of the ketone monoester. Supplements were dispensed into opaque 80 ml bottles with volume calculated for 0.3 g BHB/kg body weight and labelled either A or B by a third-party researcher. Blinding was maintained until completion of data collection and analyses.

[3] = Keto-Med study, plasma metabolites; assay type: in vivo; details: human; 4 weeks WFKD vs baseline
Method: as §2
Keto-Med study. Keto-Med was a single-site, randomized, crossover, interventional trial comparing 2 metabolically distinct diets (well-formulated ketogenic diet, WFKD; and Mediterranean-plus diet, Med-Plus) among individuals with prediabetes and T2DM. Forty participants aged ≥18 years with prediabetes or T2DM followed the WFKD and the Med-Plus for 12 weeks each, in random order. Participants were randomly assigned into 1 of 2 different diet sequences: WFKD for 12 weeks (phase 1) and then the Med-Plus for 12 weeks (phase 2), or the opposite order. Ad libitum intake was advised, and participants were guided to follow 2 sets of dietary guidelines that shared 3 important similarities (incorporating nonstarchy vegetables and avoiding added sugars and refined grains) and 3 important differences (incorporating compared with avoiding legumes, fruits, and whole, intact grains). During the WFKD phase, participants were counseled to sustain nutritional ketosis by limiting carbohydrates to 20-50 g/day and keeping proteins to ~1.5 g/kg ideal body weight/day, with the remaining kcals coming from fats. Participants were also instructed to consume >3 servings/day of nonstarchy vegetables and maintain adequate mineral and fluid intake for the ketogenic state (sodium, 3-5 g/day; potassium, 3-4 g/day). […]

HMGCL [4] = details: fasting (24 h) or ketogenic diet (2 days); Goldberg et al.; cited from earlier work
HMGCL [5] = assay: Plasma metabolites in Alb-Hmgcl (-/-) mice; assay type: in vivo, mouse; details: fasting or ketogenic diet
Method: as §1, §3

[6] = test system: mouse tissue lysate proteins (brain, heart, quadriceps, liver); assay: X-Phe photoprobe crosslinking in mouse tissue lysates, in-gel fluorescence; assay type: binding; details: 100 μM, UV crosslinking
Method: In vitro crosslinking studies of X-Phe photoprobe. Tissues were collected from wild type C57BL/6J and homogenized using a bead blaster in PBS. The protein homogenate was filtered through a 40 μm strainer to remove any un-homogenized tissue and the lysate diluted to 2 mg/ml. Tissue lysate was incubated with 100 μM of the photoprobe and incubated on ice for 10 minutes protected from light. Reactions were then put under UV for 1 min on a UV Stratalinker. A TAMRA click reaction was performed by adding the following reagents to the indicated final concentrations: […], 1 mM CuSO4, 1 mM TCEP (freshly prepared), 25 μM TAMRA-N3. Reactions were allowed to proceed for 1 hour at room temp, protected from light. Loading buffer was added to the reactions, boiled for 10 minutes and run down a protein gel. The gel was imaged prior to staining with a coomassie dye.

plasma BHB levels [1]: elevated by each of these conditions | plasma BHB in CNDP2-KO vs WT mice (CNDP2): unchanged | plasma BHB after ketone ester drink [2]: dramatically elevated | elevation of plasma BHB on WFKD [3]: 5 fold
Structure (SMILES): CC(O)CC(=O)O (stereo not drawn) [BHB, beta-hydroxybutyrate, reference compound]
circulating BHB levels in Alb-Hmgcl (-/-) mice (HMGCL [4]): reductions in circulating BHB levels

plasma level in Alb-Hmgcl (-/-) mice (HMGCL [5]): reduced in Alb-Hmgcl (−/−) mice | plasma keto amino acids in CNDP2-KO vs wild type mice (CNDP2): unaltered
Structure (SMILES): C[C@@H](O)CC(=O)N1CCC[C@H]1C(=O)O [Keto-Pro]

Structure (SMILES): C#CCCC(=O)N[C@@H](Cc1ccc(N=[N+]=[N-])cc1)C(=O)O [X-Phe photoprobe]
labelling of tissue proteins by photoprobe [6]: directly interacts with protein targets in a tissue-specific manner
